Read-outs that look alike come from different tables or passages of the source.
Columns and labels:
[1] = molecular target: T1, GSK3a (GST-full length GSK3a) (Homo sapiens, UniProt P49840); assay: GSK3a TR-FRET kinase inhibition assay; type: biochemical
T1 construct: GST-full length GSK3a [SignalChem G08-10G]; purchased SignalChem G08-10G
Summary of the method: (§1)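 GST-tagged full-length human kinase (1 nM), pre-incubated 30 min with compound, then reacted 100 min at ambient temperature at pH 7.5 with 200 nM biotinylated phospho-S645 glycogen synthase 631–650 peptide and ATP at 2 μM–1 mM. After EDTA quench, Tb-pSer641 antibody/streptavidin-d2 TR-FRET 665/615 ratio fitted for IC50.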

[2] = molecular target: T2, GSK3b (GST-full length GSK3b) (Homo sapiens, UniProt P49841); assay: GSK3b TR-FRET kinase inhibition assay; type: biochemical
T2 construct: GST-full length GSK3b: [SignalChem G08-9G]; purchased SignalChem G08-9G
T2 sequence (P49841 whole entry): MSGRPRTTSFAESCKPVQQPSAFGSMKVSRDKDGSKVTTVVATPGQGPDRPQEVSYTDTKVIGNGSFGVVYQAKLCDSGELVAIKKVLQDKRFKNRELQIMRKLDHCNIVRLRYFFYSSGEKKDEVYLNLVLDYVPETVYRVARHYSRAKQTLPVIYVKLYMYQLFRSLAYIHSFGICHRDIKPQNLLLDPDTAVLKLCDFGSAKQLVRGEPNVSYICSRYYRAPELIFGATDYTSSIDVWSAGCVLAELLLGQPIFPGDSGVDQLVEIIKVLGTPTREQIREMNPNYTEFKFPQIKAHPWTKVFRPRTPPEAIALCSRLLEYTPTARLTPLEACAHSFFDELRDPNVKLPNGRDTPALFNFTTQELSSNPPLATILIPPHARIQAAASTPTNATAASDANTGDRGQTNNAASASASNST
Summary of the method: as §1

[3] = Human liver microsomal stability; type: in vitro ADME; details: human liver microsomes
Procedure: Stability of compound (5 μL of a 10 mM DMSO solution) in human liver microsomes was tested in duplicate by incubating compound at 1 μM for 60 minutes at 37° C. Compound level at 60 minutes was compared to level at 0 minutes, and percent remaining was calculated. Order by selecting Microsomal Stability in Prometheus, checking boxes for desired species. Assay Controls: microsomes with NADPH without compound-matrix interference. Microsomes plus compound without NADPH—non-enzymatic instability.

[4] = tested on: MDR1-MDCK cell monolayers; assay: MDR1/MDCK permeability assay; type: in vitro ADME; details: for MDCK Permeability (MDR1-MDCK); Mean; Papp(A-B) (10^−6 cm/s): A to B; for MDCK Permeability (MDR1-MDCK); Mean; Papp(B-A) (10^−6 cm/s): B to A; for MDCK Permeability (MDR1-MDCK); Mean; P. Ratio(B-A/A-B) Efflux Ratio / MIDCK Permeability (MDR1-MDCK); Mean; P. Ratio(B-A/A-B) Efflux Ratio: Papp B-A/A-B
Description: The MDR1/MDCK assay is run at WuXi and Absorption Systems. This assay is used to determine the blood-brain barrier (BBB) penetration potential of a test compound using MDR1-MDCK cell monolayers. Catalog number EA203.
• The percent recovery of the test compound from the Transwell® wells containing MDR1-MDCK cell monolayers • The apparent permeability (Papp) in both directions • The efflux ratio (Papp B to A)/(Papp A to B) • The blood-brain barrier penetration potential classification: • High when • Papp A to B≥3.0×10^−6 cm/s, and efflux<3.0 • Moderate when • Papp A to B≥3.0×10^−6 cm/s, and 10>efflux≥3.0 • Low when either • Papp A to B≥3.0×10^−6 cm/s, and […], or when • Papp A to B<[…].
• Test compound at 5 μM in HBSSg with maximum DMSO concentration not greater than 1%.
• Confluent monolayers of MDR1-MDCK cells, 7 to 11 days old.
• Receiver well with 1% BSA in modified Hanks buffer (HBSSg) • Apical and basolateral side at pH 7.4 • Dose two monolayers in each direction (N=2) • Dose apical side for (A to B) assessment • Dose basolateral side for (B to A) assessment • Sample both apical and basolateral sides at 120 minutes • Determine the concentrations of test compound using a generic LC-MS/MS method with a minimum 4 point calibration curve.
• The quality of the cell monolayer batch is verified using control compounds before monolayers are released for use • The quality of each monolayer used in the assay is verified by a TEER measurement and by calculating the Papp for a control compound.

[5] = 4 μM ATP, read-out: GSK3α TR-FRET 4 μM ATP GMean IC50
[6] = 2 μM ATP, read-out: GSK3β TR-FRET 2 μM ATP GMean IC50
[7] = 10 μM ATP, read-out: GSK3a 10 μM ATP Average IC50
[8] = 100 μM ATP, read-out: GSK3a 100 μM ATP Average IC50
[9] = 1 mM ATP, Table 3, read-out: GSK3a TR-FRET 1 mM ATP Average IC50
[10] = 10 μM ATP, read-out: GSK3b 10 μM ATP Average IC50
[11] = 100 μM ATP, read-out: GSK3b 100 μM ATP Average IC50
[12] = 1 mM ATP, Table 3, read-out: GSK3b TR-FRET 1 mM ATP Average IC50
[13] = 1 mM ATP, Table 4, read-out: GSK3α TR-FRET 1 mM ATP GMean IC50
[14] = 1 mM ATP, Table 4, read-out: GSK3β TR-FRET 1 mM ATP GMean IC50

T1 sequence (P49840 whole entry): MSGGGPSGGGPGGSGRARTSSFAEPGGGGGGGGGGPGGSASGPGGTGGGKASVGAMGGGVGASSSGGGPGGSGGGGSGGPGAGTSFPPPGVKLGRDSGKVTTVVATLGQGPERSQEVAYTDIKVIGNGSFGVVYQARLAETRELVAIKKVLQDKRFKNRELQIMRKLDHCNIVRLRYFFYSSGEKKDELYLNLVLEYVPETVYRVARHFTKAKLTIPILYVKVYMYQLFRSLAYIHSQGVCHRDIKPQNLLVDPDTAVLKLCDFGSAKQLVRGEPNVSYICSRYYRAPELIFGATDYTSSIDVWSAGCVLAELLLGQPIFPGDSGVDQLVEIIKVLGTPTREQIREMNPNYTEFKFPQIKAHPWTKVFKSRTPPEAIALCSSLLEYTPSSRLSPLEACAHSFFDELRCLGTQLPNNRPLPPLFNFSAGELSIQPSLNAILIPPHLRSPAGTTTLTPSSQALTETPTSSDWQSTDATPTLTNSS

Compound	IC50 [1, 5] [nM]	IC50 [2, 6] [nM]	Microsome Stability (Human) (DMPK_BIIB); Mean; in vitro t1/2 ([3]; Table 4) [min]	MDCK Permeability (MDR1-MDCK); Mean; Papp(A-B) (10^−6 cm/s) ([4]; Table 4)	MDCK Permeability (MDR1-MDCK); Mean; Papp(B-A) (10^−6 cm/s) ([4]; Table 4)	MDCK Permeability (MDR1-MDCK); Mean; P. Ratio(B-A/A-B) Efflux Ratio ([4]; Table 4)	Microsome Stability (Human) (DMPK_BIIB); Mean; in vitro t1/2 ([3]; Table 3) [min]	MDCK Permeability (MDR1-MDCK); Mean; Papp(A-B) (10^−6 cm/s) ([4]; Table 3)	MDCK Permeability (MDR1-MDCK); Mean; Papp(B-A) (10^−6 cm/s) ([4]; Table 3)	MIDCK Permeability (MDR1-MDCK); Mean; P. Ratio(B-A/A-B) Efflux Ratio ([4]; Table 3)	IC50 [1, 7] [nM]	IC50 [1, 8] [nM]	IC50 [1, 9] [nM]	IC50 [2, 10] [nM]	IC50 [2, 11] [nM]	IC50 [2, 12] [nM]	IC50 [1, 13] [nM]	IC50 [2, 14] [nM]
CCC1(c2cccc(-c3c(F)cncc3OC)c2)C2=C(CC(C)(C)CC2=O)Nc2ncc(F)cc21 (single isomer, unassigned) [Compound 161A]	100 to 1000	1000 to 5000					10	12 10^−6 cm/s	6.9 10^−6 cm/s	0.59								
CCC1(c2ccccc2)C2=C(CC(C)(C)CC2=O)Nc2ncccc21 (single isomer, unassigned) [Compound 102A]							14	22 10^−6 cm/s	19 10^−6 cm/s	0.87	≤ 100	100 to 1000	1000 to 5000	≤ 100	100 to 1000	1000 to 5000		
CC(C)(C)Cc1ccnc2c1C(C)(c1ccccc1)C1=C(CC(C)(C)CC1=O)N2 (single isomer, unassigned) [Compound 130A]							0.55	1.4 10^−6 cm/s	0.65 10^−6 cm/s	0.48	≤ 100	100 to 1000	5000 to 20000	≤ 100	100 to 1000	5000 to 20000		
CC(C)(C)Cc1ccnc2c1C(C)(c1ccccc1)C1=C(CC(C)(C)CC1=O)N2 (single isomer, unassigned) [Compound 130B]							0.53	1.3 10^−6 cm/s	0.75 10^−6 cm/s	0.60	100 to 1000	1000 to 5000	5000 to 20000	100 to 1000	100 to 1000	5000 to 20000		
CC(C)(C)Cc1cnc2c(c1)C(C)(c1ccccc1)C1=C(CC(C)(C)CC1=O)N2 (single isomer, unassigned) [Compound 129B]							1.1	1.8 10^−6 cm/s	1.0 10^−6 cm/s	0.59	20000 to 60000		5000 to 20000	5000 to 20000	20000 to 60000	5000 to 20000		
CC1(C)CC(=O)C2=C(C1)Nc1ncccc1C2(C)c1ccccc1 (single isomer, unassigned) [Compound 101A]							37	30 10^−6 cm/s	22 10^−6 cm/s	0.72	≤ 100	100 to 1000	1000 to 5000	≤ 100	100 to 1000	1000 to 5000		
CC1(C)CC(=O)C2=C(C1)Nc1nccc(C(F)(F)F)c1C2(C)c1ccccc1 (single isomer, unassigned) [Compound 127A]							8.3	17 10^−6 cm/s	8.7 10^−6 cm/s	0.50			100 to 1000			100 to 1000		
CCC1(c2cccc(-c3cncn3C(C)C)c2)C2=C(CC(C)(C)CC2=O)Nc2ncccc21 (single isomer, unassigned) [Compound 149A]	≤ 100	≤ 100	9.9	2.3 10^−6 cm/s	41 10^−6 cm/s	18	16				≤ 100	≤ 100	100 to 1000	≤ 100	≤ 100	100 to 1000	≤ 100	100 to 1000

Continued, values first:

IC50 [1, 5] [nM]	IC50 [2, 6] [nM]	Microsome Stability (Human) (DMPK_BIIB); Mean; in vitro t1/2 ([3]; Table 4) [min]	MDCK Permeability (MDR1-MDCK); Mean; Papp(A-B) (10^−6 cm/s) ([4]; Table 4)	MDCK Permeability (MDR1-MDCK); Mean; Papp(B-A) (10^−6 cm/s) ([4]; Table 4)	MDCK Permeability (MDR1-MDCK); Mean; P. Ratio(B-A/A-B) Efflux Ratio ([4]; Table 4)	Microsome Stability (Human) (DMPK_BIIB); Mean; in vitro t1/2 ([3]; Table 3) [min]	MDCK Permeability (MDR1-MDCK); Mean; Papp(A-B) (10^−6 cm/s) ([4]; Table 3)	MDCK Permeability (MDR1-MDCK); Mean; Papp(B-A) (10^−6 cm/s) ([4]; Table 3)	MIDCK Permeability (MDR1-MDCK); Mean; P. Ratio(B-A/A-B) Efflux Ratio ([4]; Table 3)	IC50 [1, 7] [nM]	IC50 [1, 8] [nM]	IC50 [1, 9] [nM]	IC50 [2, 10] [nM]	IC50 [2, 11] [nM]	IC50 [2, 12] [nM]	IC50 [1, 13] [nM]	IC50 [2, 14] [nM]	Compound
≤ 100	≤ 100	7.7	1.2 10^−6 cm/s	42 10^−6 cm/s	37													CCC1(c2cccc(O)c2)C2=C(CC(C)(C)CC2=O)Nc2ncccc21 (single isomer, unassigned) [Compound 1004A]
≤ 100	100 to 1000	3.1	5.1 10^−6 cm/s	30 10^−6 cm/s	5.8													CCC1(c2cccc(-c3cc(C)ncc3C)c2)C2=C(CC(C)(C)CC2=O)Nc2ncccc21 (single isomer, unassigned) [Compound 1027B]
≤ 100	≤ 100	5.6	5.2 10^−6 cm/s	33 10^−6 cm/s	6.4							100 to 1000			1000 to 5000	≤ 100	≤ 100	CCC1(c2cccc(-c3c(F)cncc3OC)c2)C2=C(CC(C)(C)CC2=O)Nc2ncc(F)cc21 (single isomer, unassigned) [Compound 161B]
≤ 100	≤ 100	4.6	6.6 10^−6 cm/s	22 10^−6 cm/s	3.3											100 to 1000	1000 to 5000	CCC1(c2cccc(-c3ccnc4c3CCCC4)c2)C2=C(CC(C)(C)CC2=O)Nc2ncccc21 (single isomer, unassigned) [Compound 1039B]
≤ 100	≤ 100	1.5	4.5 10^−6 cm/s	32 10^−6 cm/s	6.9													CCC1(c2cccc(-c3ccccn3)c2)C2=C(CC(C)(C)CC2=O)Nc2ncccc21 (single isomer, unassigned) [Compound 1016A]
≤ 100	100 to 1000	13	0.70 10^−6 cm/s	34 10^−6 cm/s	49													CCC1(c2cccc(-c3cncn3C(C)C)c2)C2=C(CC(C)(C)CC2=O)Nc2ncc(F)cc21 (single isomer, unassigned) [Compound 1038B]
≤ 100	≤ 100	3.2	3.0 10^−6 cm/s	27 10^−6 cm/s	9.0											100 to 1000	1000 to 5000	CCC1(c2cccc(-c3cn(C)nc3C)c2)C2=C(CC(C)(C)CC2=O)Nc2ncccc21 (single isomer, unassigned) [Compound 1023A]

Reference: patent publication US20260103465A1, “GLYCOGEN SYNTHASE KINASE 3 INHIBITORS AND USES THEREOF” (The Broad Institute, Inc., priority 2023, published 2026)
